Measured values: article PMC10734772 (Turkish Journal of Chemistry, 2021)

Experiments:
Assay type in all cases: cell-based
K562 = assay: MTT assay, K562 cells; conditions: Homo sapiens, 24 h
Nalm-6 = assay: MTT assay, Nalm-6 cells; conditions: Homo sapiens, 24 h
Molt-4 = assay: MTT assay, Molt-4 cells
Protocol: (§1) K562, Jurkat, Molt-4, and Nalm-6 cell lines were cultured in RPMI-1640 medium (ECM2001, Euroclone), Reh cell line was cultured in DMEM medium (LM-D1111-Biosera) Hek293T cell line was cultured in IMDM medium (AL070A - HiMedia) supplemented with 10% heat-inactivated fetal bovine serum (F7524-Merck & Co., USA,) penicillin and streptomycin (P4333-Sigma Aldrich). K562, Jurkat and Molt-4 cell lines were seeded as 4x10^5/ml, Reh and Nalm-6 cell lines were seeded 5x10^5/ml, Hek293T cell line was seed as 2x10^5/ml. All cells were incubated at 5% CO2 and 37 °C. All cell lines were kindly provided by Dr. M. Sayitoglu and Dr. Ö. Hatirnaz-Ng from Acibadem University.
(§2) MTT assay is a 3-day test. On the first day, cell count was performed in Bio Rad TC-20 device with the help of trypan blue, each cell line was prepared by diluting to the specified concentrations and seeded in a 96-well plate as 100μL to each well and incubated for 1 day.
(§3) Each compound was solved in DMSO, their stock solutions (33.3, 10, 5, 1 mM, and 300 μM) were prepared by diluting with the same solvent and they were stored under −20°C when they were not used.
(§4) On the second day, stock solutions were subsequently diluted to various concentrations (0.3–200 μM) with related medium prior to experiments. Specified concentrations of the compounds were seeded in a 96-well plate as 100μL to each well and incubated for 24 h.
(§5) After incubation (on the third day), to precipitate leukemia cells, the cell plate was centrifuged at 1500 rpm for 5 min. Then, 100 μL of supernatant was removed from each well carefully and 10 μl of MTT solution (5 mg/mL) was added to each well and incubated at 37 °C for 4 h. The 50 μl of supernatant was discarded from each well and 100 μl of DMSO was added to dissolve the formazan. Plates were shaken for 45 min to dissolve the dye. Then the optical density of each well was measured by using Thermo VarioSkan Flush Multimode Reader Quantum ST5-1100 at 570 nm wavelength.
(§6) Subsequently, viability rate of the cells at each concentration, as percentage, was determined by following formula (1):
(§7) Viability rate (%)=100-[(OD(control)-OD(sample))/OD(control)×100].OD=Optical Density
(§8) The IC50 values were calculated by using GraphPad Prism. All the data presented as the mean of 6 replicates. Results were analyzed and illustrated with Graph Pad Prism (version 5; GraphPad Software, San Diego, CA, USA). Statistical analysis was performed using dose-response inhibition, log(inhibitor) vs response-variable slope, least squares (ordinary) fit.
(§9) To evaluate in-vitro anti-cancer activity of the newly synthesized compounds, they were tested by using the MTT assay in the BCR-ABL positive leukemic cell line (K562), BCR-ABL negative leukemic cell lines (Nalm-6, Molt-4, Reh and Jurkat), and non-leukemic human embryonic kidney tissue (Hek293T) cell line. […] The viability rate of each concentration was calculated by the formula stated in material and methods, the viability rate results for each cell were presented in Table S2 and Figure S44.

Reh = assay: MTT assay, Reh cells; conditions: Homo sapiens, 24 h, read-out: Viability rate
Protocol: as §1, §2, §3, §4, §5, §6, §7, §8, §9

Jurkat = assay: MTT assay, Jurkat cells; conditions: Homo sapiens, 24 h, read-out: Viability rate
Protocol: as §1, §2, §3, §4, §5, §6, §7, §8, §9

[1] = MTT assay, Hek293T non-leukemic control cells; conditions: human, read-out: Viability rate
Protocol: as §1, §2, §3, §4, §5, §6, §7, §8, §9

[2] = test system: K562, Nalm-6, Molt-4, Reh, Jurkat, Hek293T cell lines; assay: MTT assay, overall judgement over all cell lines; conditions: overall judgement in words; for 6 and 10: on all cell lines, except Reh
Protocol: as §9

IC50 (K562; K562, MTT, range 0.3–200 μM, six replicates): 35 µM
SMILES: COc1ccc(CN2CCN(Cc3ccc(C(=O)Nc4ccc(C)c(Nc5cc(C)ccn5)c4)cc3)CC2)c(OC)c1OC [Compound 10, N-(4-Methyl-3-((4-methylpyridin-2-yl)amino)phenyl)-4-((4-(2,3,4-trimethoxybenzyl)piperazin-1-yl)methyl)benzamide]
viability at 0.3 µM (K562; K562, 0.3 μM, MTT, read-out: Viability rate): 104.1 ± 0.07%
viability at 0.5 µM (K562; K562, 0.5 μM, MTT, read-out: Viability rate): 103.4 ± 0.06%
viability at 1 µM (K562; K562, 1 μM, MTT, read-out: Viability rate): 98.9 ± 0.05%
viability at 3 µM (K562; K562, 3 μM, MTT, read-out: Viability rate): 98.7 ± 0.04%
viability at 5 µM (K562; K562, 5 μM, MTT, read-out: Viability rate): 98.6 ± 0.06%
viability at 10 µM (K562; K562, 10 μM, MTT, read-out: Viability rate): 98.9 ± 0.09%
viability at 15 µM (K562; K562, 15 μM, MTT, read-out: Viability rate): 98.6 ± 0.08%
viability at 20 µM (K562; K562, 20 μM, MTT, read-out: Viability rate): 79.2 ± 0.06%
viability at 30 µM (K562; K562, 30 μM, MTT, read-out: Viability rate): 78.9 ± 0.1%
viability at 50 µM (K562; K562, 50 μM, MTT, read-out: Viability rate): 56.1 ± 0.03%
viability at 70 µM (K562; K562, 70 μM, MTT, read-out: Viability rate): 38.5 ± 0.02%
viability at 100 µM (K562; K562, 100 μM, MTT, read-out: Viability rate): 38.7 ± 0.01%
viability at 150 µM (K562; K562, 150 μM, MTT, read-out: Viability rate): 38.9 ± 0.01%
viability at 200 µM (K562; K562, 200 μM, MTT, read-out: Viability rate): 38.7%
viability at 0.3 µM (Nalm-6; Nalm-6, 0.3 μM, MTT, read-out: Viability rate): 92.7 ± 0.08%
viability at 0.5 µM (Nalm-6; Nalm-6, 0.5 μM, MTT, read-out: Viability rate): 88.6 ± 0.06%
viability at 1 µM (Nalm-6; Nalm-6, 1 μM, MTT, read-out: Viability rate): 87.3 ± 0.07%
viability at 3 µM (Nalm-6; Nalm-6, 3 μM, MTT, read-out: Viability rate): 86.5 ± 0.02%
viability at 5 µM (Nalm-6; Nalm-6, 5 μM, MTT, read-out: Viability rate): 85.5 ± 0.06%
viability at 10 µM (Nalm-6; Nalm-6, 10 μM, MTT, read-out: Viability rate): 84.8 ± 0.08%
viability at 15 µM (Nalm-6; Nalm-6, 15 μM, MTT, read-out: Viability rate): 82.2 ± 0.08%
viability at 20 µM (Nalm-6; Nalm-6, 20 μM, MTT, read-out: Viability rate): 71.9 ± 0.07%
viability at 30 µM (Nalm-6; Nalm-6, 30 μM, MTT, read-out: Viability rate): 54.2 ± 0.07%
viability at 50 µM (Nalm-6; Nalm-6, 50 μM, MTT, read-out: Viability rate): 29.8 ± 0.01%
viability at 70 µM (Nalm-6; Nalm-6, 70 μM, MTT, read-out: Viability rate): 28.8 ± 0.01%
viability at 100 µM (Nalm-6; Nalm-6, 100 μM, MTT, read-out: Viability rate): 28.7 ± 0.01%
viability at 150 µM (Nalm-6; Nalm-6, 150 μM, MTT, read-out: Viability rate): 28.5 ± 0.01%
viability at 200 µM (Nalm-6; Nalm-6, 200 μM, MTT, read-out: Viability rate): 28.7%
IC50 (Nalm-6; Nalm-6, MTT, range 0.3–200 μM, six replicates): 28.7 µM
viability at 0.3 µM (Molt-4; Homo sapiens, MOLT-4, 24 h, Molt-4, 0.3 μM, read-out: Viability rate): 87.9 ± 0.03%
viability at 0.5 µM (Molt-4; Homo sapiens, MOLT-4, 24 h, Molt-4, 0.5 μM, read-out: Viability rate): 86.8 ± 0.02%
viability at 1 µM (Molt-4; Homo sapiens, MOLT-4, 24 h, Molt-4, 1 μM, read-out: Viability rate): 87.7 ± 0.01%
viability at 3 µM (Molt-4; Homo sapiens, MOLT-4, 24 h, Molt-4, 3 μM, read-out: Viability rate): 86.5 ± 0.02%
viability at 5 µM (Molt-4; Homo sapiens, MOLT-4, 24 h, Molt-4, 5 μM, read-out: Viability rate): 86.2 ± 0.08%
viability at 10 µM (Molt-4; Homo sapiens, MOLT-4, 24 h, Molt-4, 10 μM, read-out: Viability rate): 89.1 ± 0.03%
viability at 15 µM (Molt-4; Homo sapiens, MOLT-4, 24 h, Molt-4, 15 μM, read-out: Viability rate): 88.1 ± 0.04%
viability at 20 µM (Molt-4; Homo sapiens, MOLT-4, 24 h, Molt-4, 20 μM, read-out: Viability rate): 77 ± 0.04%
viability at 30 µM (Molt-4; Homo sapiens, MOLT-4, 24 h, Molt-4, 30 μM, read-out: Viability rate): 65.3 ± 0.03%
viability at 50 µM (Molt-4; Homo sapiens, MOLT-4, 24 h, Molt-4, 50 μM, read-out: Viability rate): 52.1 ± 0.03%
viability at 70 µM (Molt-4; Homo sapiens, MOLT-4, 24 h, Molt-4, 70 μM, read-out: Viability rate): 42.8 ± 0.01%
viability at 100 µM (Molt-4; Homo sapiens, MOLT-4, 24 h, Molt-4, 100 μM, read-out: Viability rate): 40.4 ± 0.01%
viability at 150 µM (Molt-4; Homo sapiens, MOLT-4, 24 h, Molt-4, 150 μM, read-out: Viability rate): 40 ± 0.01%
viability at 200 µM (Molt-4; Homo sapiens, MOLT-4, 24 h, Molt-4, 200 μM, read-out: Viability rate): 40.7 ± 0.01%
Viability rate (Molt-4; Molt-4, 200 μM, 24 h, 200 µM): < 50%
viability at 0.3 µM (Reh; 0.3 μM): 93.4 ± 0.02%
viability at 0.5 µM (Reh; 0.5 μM): 92.4 ± 0.02%
viability at 1 µM (Reh; 1 μM): 92.4 ± 0.01%
viability at 3 µM (Reh; 3 μM): 92.6 ± 0.02%
viability at 5 µM (Reh; 5 μM): 92.8 ± 0.02%
viability at 10 µM (Reh; 10 μM): 92.3 ± 0.03%
viability at 15 µM (Reh; 15 μM): 92.6 ± 0.02%
viability at 20 µM (Reh; 20 μM): 91.8 ± 0.01%
viability at 30 µM (Reh; 30 μM): 65.6 ± 0.02%
viability at 50 µM (Reh; 50 μM): 59.5 ± 0.03%
viability at 70 µM (Reh; 70 μM): 59.1 ± 0.02%
viability at 100 µM (Reh; 100 μM): 59.6 ± 0.03%
viability at 150 µM (Reh; 150 μM): 57.4 ± 0.03%
viability at 200 µM (Reh; 200 μM): 55.2 ± 0.03%
viability at 0.3 µM (Jurkat; 0.3 μM): 73 ± 0.1%
viability at 0.5 µM (Jurkat; 0.5 μM): 71.7 ± 0.1%
viability at 1 µM (Jurkat; 1 μM): 70.9 ± 0.08%
viability at 3 µM (Jurkat; 3 μM): 69.4 ± 0.03%
viability at 5 µM (Jurkat; 5 μM): 68.7 ± 0.05%
viability at 10 µM (Jurkat; 10 μM): 68.1 ± 0.09%
viability at 15 µM (Jurkat; 15 μM): 67.5 ± 0.07%
viability at 20 µM (Jurkat; 20 μM): 64.1 ± 0.15%
viability at 30 µM (Jurkat; 30 μM): 61.7 ± 0.07%
viability at 50 µM (Jurkat; 50 μM): 61.4 ± 0.05%
viability at 70 µM (Jurkat; 70 μM): 50.5 ± 0.02%
viability at 100 µM (Jurkat; 100 μM): 38.1 ± 0.2%
viability at 150 µM (Jurkat; 150 μM): 35.9 ± 0.12%
viability at 200 µM (Jurkat; 200 μM): 32.5 ± 0.03%
viability at 24 h, 0.3 µM ([1]; Hek293T cells (non-leukemic control cell line), 0.3 μM): 82.8 ± 0.02%
viability at 24 h, 0.5 µM ([1]; Hek293T cells (non-leukemic control cell line), 0.5 μM): 78.2 ± 0.01%
viability at 24 h, 3 µM ([1]; Hek293T cells (non-leukemic control cell line), 3 μM): 80.4 ± 0.02%
viability at 24 h, 5 µM ([1]; Hek293T cells (non-leukemic control cell line), 5 μM): 79.1 ± 0.01%
viability at 24 h, 10 µM ([1]; Hek293T cells (non-leukemic control cell line), 10 μM): 80.2 ± 0.02%
viability at 24 h, 15 µM ([1]; Hek293T cells (non-leukemic control cell line), 15 μM): 81.4 ± 0.01%
viability at 24 h, 20 µM ([1]; Hek293T cells (non-leukemic control cell line), 20 μM): 80.8 ± 0.01%
viability at 24 h, 30 µM ([1]; Hek293T cells (non-leukemic control cell line), 30 μM): 82.2 ± 0.03%
viability at 24 h, 50 µM ([1]; Hek293T cells (non-leukemic control cell line), 50 μM): 79.2 ± 0.03%
viability at 24 h, 70 µM ([1]; Hek293T cells (non-leukemic control cell line), 70 μM): 80.2 ± 0.02%
viability at 24 h, 100 µM ([1]; Hek293T cells (non-leukemic control cell line), 100 μM): 80.7 ± 0.01%
viability at 24 h, 150 µM ([1]; Hek293T cells (non-leukemic control cell line), 150 μM): 80 ± 0.01%
viability at 24 h, 200 µM ([1]; Hek293T cells (non-leukemic control cell line), 200 μM): 81 ± 0.02%
viability at 24 h, 1 µM ([1]; Hek293T cells, 1 μM): 78.1 ± 0.01%
anticancer activity according to MTT assay results [2]: high anticancer activity
